From patent US7311933B2, “Packaging material for inhibiting microbial growth” (Eastman Kodak Company, priority 2004, dated 2007)

Type: physicochemical
Text: Desferrioxamine B is a commercially available iron chelating drug, desferal®. […] (1980). […] 89, p.

| selectivity: difference between the log stability constants | SMILES |
| --- | --- |
| 26.8 | O=C(NCCCCN(CCCNC(=O)c1cc(S(=O)(=O)O)cc(O)c1O)C(=O)c1cc(S(=O)(=O)O)cc(O)c1O)c1cc(S(=O)(=O)O)cc(O)c1O [3,4-LICAMS] |
| 17.2 | O=C(O)CN(CCN(CC(=O)O)CC(=O)O)CCN(CC(=O)O)CC(=O)O [DTPA, diethylenetriaminepentaacetic acid] |
